Earlier results in patent publication US20080182823A1, “POLYMER-LINKED-BIOPHOSPHONATE INHALANT FORMULATIONS AND METHODS FOR USING THE SAME” (priority 2007, published 2008).

Tested on: antral mucosa
Details: rat models; Lichtenberger et al., Dig. Dis. Sci. 45(9):1792-1801, 2000

Row | Compound | antral mucosal injury
1 | O=P(O)(O)C(O)(Cc1cccnc1)P(=O)(O)O [risedronate, [1-Hydroxy-2-(3-pyridinyl)-ethylidine] bis-phosphonate] | cause antral mucosal injury
2 | NCCCC(O)(P(=O)(O)O)P(=O)(O)O [alendronate, (4-amino-1-hydroxybutylidene)-bis-phosphonate] | cause antral mucosal injury
